Like-named read-outs stand apart in the source and are kept apart here.
Legend:
Cellules T = assay: Proliferation of mouse T cells (3H-thymidine incorporation); type: cell-based, souris; conditions: for inhibition at 200 µg/mL: T-cell, read-out: pourcentage d'augmentation (+) ou d'inhibition (-) de la prolifération
Excerpt: (§1) Les anticorps utilisés sont des anticorps monoclonaux (AM) naturels (N5-12, N5-17, MO-1, 62-1, D-23) et proviennent d'hybridomes préparés par fusion des cellules de rate de souris n'ayant reçu aucune immunisation au préalable ni aucune stimulation mitogénique, avec le myélome de souris X63-Ag8. Les hybridomes TNP11 et TNP9 proviennent de fusion des cellules de rate de souris immunisées avec du Ficoll-TNP. Ils ont été maintenus en culture dans le milieu RPMI complet contenant 10% de sérum de veau foetal. Les hybridomes ont été injectés à des souris Balb/c préalablement traitées au pristane dans le but d'obtenir des ascites. Les AM ont été utilisés en tant que surnageants de culture ou en tant qu'ascites ou après isolement par chromatographie d'affinité sur une colonne de DNP-Sépharose. Ces anticorps ont été testés par test immunoenzymatique sur différents antigènes immobilisés sur des plaques de polystyrène et révélés par un anticorps anti-Ig de souris couplé à la β-galactosidase.
(§2) Le TNP a été couplé à la sérumalbumine bovine (BSA) par la méthode de Little & Eisen : 1ml de BSA à 20mg/ml dans le tampon carbonate-bicarbonate, 0,1M, pH 9,5, est ajouté à 1ml d'une solution d'acide trinitrobenzène sulfonique à 2 mg/ml dans le même tampon. La réaction est arrêtée après 30 à 120 minutes selon la substitution voulue par élimination de l'excès de réactifs sur échangeur d'ions (Dowex 1 x 4) puis dialyse. Des préparations de BSA substituée avec soit 14 ou 30 molécules de TNP par molécule de BSA (TNP₁₄-BSA ou TNP₃₀-BSA) ont été utilisées.
(§3) Le DNP-Glycine (DNP-Gly) et le DNP-Lysine (DNP-Lys) proviennent des Laboratoires Sigma et sont solubilisés directement dans le milieu de culture.
(§4) Les cellules proviennent de rate ou de thymus de souris. Les souris sont tuées par dislocation cervicale et leur rate ou leur thymus prélevé stérilement sont déposés dans du milieu RPMI. Les cellules sont dissociées, lavées une fois avec du milieu puis les globules rouges sont lysés au chlorure d'ammonium (0,9%) pendant 1 minute à froid puis les cellules sont relavées dans le milieu complet.
(§5) Les sous-populations de cellules B ou T sont ensuite séparées comme suit : • Sous-population T : les cellules T sont obtenues à partir de la population de cellules de la rate par élimination des cellules portant des Ig à leur surface (sous-population B) sur des anticorps anti-Ig de souris immobilisés soit sur des billes magnétiques (Magnogel)® soit sur des boites de Pétri. • Sous-population B : les cellules B sont obtenues après détachement mécanique des supports dur lesquels elles étaient fixées par l'intermédiaire des anticorps anti-Ig (après l'isolement des cellules T), ou après élimination de la sous-population des cellules T de la population totale des cellules de rate par un traitement avec un anticorps anti-cellules T suivi de complément de cobaye. • Thymocytes : les thymocytes sont dissociés dans le RPMI et les cellules isolées sont lavées dans le milieu complet avant d'être mises en culture.
(§6) Le milieu de culture utilisé est du RPMI 1640 contenant du sérum de veau foetal (5%), du pyruvate de sodium (1mM), de la L-glutamine (1mM), du 2-mercaptoethanol (0,05 mM), de la pénicilline (100»g/ml) et de la streptomycine (50»g/ml).
(§7) 2x10⁵ cellules de chaque population cellulaire ou 4x10⁵ de cellules de rate non fractionnées sont distribuées sous un volume final de 200»l dans des boîtes de culture de 96 puits à fond plat en présence ou non des différents stimulateurs (ou mitogènes)(40»g/ml de lipopolysaccharide W Salmonella typhosa 2»g/ml de concanavaline A, ou des surnageants de culture contenant les anticorps monoclonaux à différentes dilutions ou une solution de TNP-BSA à des concentrations finales allant de 200ng à 200»g/ml). Les cultures sont effectuées pendant 48 à 96 heures à 37°C dans une atmosphère de 5% de CO2.
(§8) Six à huit heures avant la fin de la culture, 100»l de surnageant sont prélevés de chaque puits de culture afin d'être testés quant à leur contenu en anticorps. […]

Cellules B = assay: Proliferation of mouse B cells (3H-thymidine incorporation); type: cell-based, souris; conditions: for inhibition at 200 µg/mL: B-cell, read-out: pourcentage d'augmentation (+) ou d'inhibition (-) de la prolifération
Excerpt: as §1, §2, §3, §4, §5, §6, §7, §8

[1] = system: VSV (Vesicular Stomatitis Virus); assay: microbe, parasite or virus in culture; type: cell-based; conditions: Vesicular stomatitis virus
[2] = system: EMCV (Encephalomyocarditis Virus); assay: microbe, parasite or virus in culture; type: cell-based; conditions: Cardiovirus A
Cellules de rate = assay: Proliferation of mouse spleen cells (3H-thymidine incorporation); type: cell-based, souris; conditions: for inhibition at 200 µg/mL: read-out: pourcentage d'augmentation (+) ou d'inhibition (-) de la prolifération
Excerpt: as §1, §2, §3, §4, §6, §7
Six à huit heures avant la fin de la culture, 100»l de surnageant sont prélevés de chaque puits de culture afin d'être testés quant à leur contenu en anticorps. 10»l d'une solution de ³H-thymidine (activité spécifique = […]) à 50 »Ci/ml sont ajoutés à la culture qui est ensuite poursuivie. Les cellules de chaque puits sont collectées sur du papier filtre à l'aide d'un collecteur automatique et, après sèchage, les filtres sont comptés dans un liquide scintillant.

[3] = system: virus de la chorioméningite lymphocytaire (CML); assay: organism not typed; type: cell-based; conditions: L929
[4] = 12 (µg/ml), conA* (mitogène ajouté après 48 heures)
[5] = 50 (µg/ml), conA* (mitogène ajouté après 48 heures)
[6] = 12 (µg/ml), LPS* (mitogène ajouté après 48 heures)
[7] = 50 (µg/ml), LPS* (mitogène ajouté après 48 heures)

Q: With `O=C(O)CNc1ccc([N+](=O)[O-])cc1[N+](=O)[O-]` [DNP-glycine, DNP-Glycine] as the compound, how does the “pourcentage d'augmentation (+) ou d'inhibition (-) de la prolifération” value (Cellules T; 0,7 (µg/ml), M (milieu seul)) read?
A: The value was “+50%”.

Q: And the “pourcentage d'augmentation (+) ou d'inhibition (-) de la prolifération” value (Cellules T; 0,7 (µg/ml), conA* (mitogène ajouté après 48 heures))?
A: The value was 0%.

Q: And the “pourcentage d'augmentation (+) ou d'inhibition (-) de la prolifération” value (Cellules T; 3 (µg/ml), M (milieu seul))?
A: Its value is 0%.

Q: What about the “pourcentage d'augmentation (+) ou d'inhibition (-) de la prolifération” value (Cellules T; 3 (µg/ml), conA* (mitogène ajouté après 48 heures)) of the same compound?
A: Its value is -5%.

Q: And the “pourcentage d'augmentation (+) ou d'inhibition (-) de la prolifération” value (Cellules T; 12 (µg/ml), M (milieu seul))?
A: Its value is 0%.

Q: What about the “pourcentage d'augmentation (+) ou d'inhibition (-) de la prolifération” value (Cellules T; [4]) of the same compound?
A: The value was -4%.

Q: And the “pourcentage d'augmentation (+) ou d'inhibition (-) de la prolifération” value (Cellules T; 50 (µg/ml), M (milieu seul))?
A: Its value is “+30%”.

Q: What about the “pourcentage d'augmentation (+) ou d'inhibition (-) de la prolifération” value (Cellules T; [5]) of the same compound?
A: The value was -15%.

Q: What about the inhibition at 200 µg/mL (Cellules T; M (milieu seul)) of the same compound?
A: Its inhibition at 200 µg/mL is 4%.

Q: And the inhibition at 200 µg/mL (Cellules T; conA* (mitogène ajouté après 48 heures))?
A: Its inhibition at 200 µg/mL is -45%.

Q: And the “pourcentage d'augmentation (+) ou d'inhibition (-) de la prolifération” value (Cellules B; 3 (µg/ml), LPS* (mitogène ajouté après 48 heures))?
A: Its value is -7%.

Q: And the “pourcentage d'augmentation (+) ou d'inhibition (-) de la prolifération” value (Cellules B; 3 (µg/ml), M (milieu seul))?
A: The value was -25%.

Q: What about the “pourcentage d'augmentation (+) ou d'inhibition (-) de la prolifération” value (Cellules B; [6]) of the same compound?
A: Its value is -40%.

Q: What about the “pourcentage d'augmentation (+) ou d'inhibition (-) de la prolifération” value (Cellules B; 12 (µg/ml), M (milieu seul)) of the same compound?
A: Its value is -50%.

Q: What about the “pourcentage d'augmentation (+) ou d'inhibition (-) de la prolifération” value (Cellules B; [7]) of the same compound?
A: The value was -64%.

Q: What about the “pourcentage d'augmentation (+) ou d'inhibition (-) de la prolifération” value (Cellules B; 50 (µg/ml), M (milieu seul)) of the same compound?
A: The value was -60%.

Q: And the inhibition at 200 µg/mL (Cellules B; LPS* (mitogène ajouté après 48 heures))?
A: Its inhibition at 200 µg/mL is -80%.

Q: And the inhibition at 200 µg/mL (Cellules B; M (milieu seul))?
A: Its inhibition at 200 µg/mL is -90%.

Q: What about the inhibition at 30 µg/mL ([1]; L929) of the same compound?
A: The inhibition at 30 µg/mL was 0%.

Q: What about the inhibition at 70 µg/mL ([1]; L929) of the same compound?
A: Its inhibition at 70 µg/mL is 0%.

Q: What about the inhibition at 150 µg/mL ([1]; L929) of the same compound?
A: Its inhibition at 150 µg/mL is 6%.

Q: What about the inhibition at 300 µg/mL ([1]; L929) of the same compound?
A: Its inhibition at 300 µg/mL is 38%.

Q: And the inhibition at 600 µg/mL ([1]; L929)?
A: The inhibition at 600 µg/mL was 47%.

Q: What about the inhibition at 1200 µg/mL ([1]; L929) of the same compound?
A: Its inhibition at 1200 µg/mL is 68%.

Q: What about the inhibition at 2400 µg/mL ([1]; L929) of the same compound?
A: Its inhibition at 2400 µg/mL is 41%.

Q: And the minimal effective concentration ([1]; L929, 72 h, read-out: a un effet jusqu'à une concentration de)?
A: The minimal effective concentration was 1200 µg/mL.

Q: What about the minimal effective concentration ([2]; L929, 24 h, read-out: séroneutralise jusqu'à une concentration de) of the same compound?
A: Its minimal effective concentration is 600 µg/mL.

Q: What about the inhibition at 30 µg/mL ([2]; L929, 0,03 mg/ml) of the same compound?
A: The inhibition at 30 µg/mL was 0%.

Q: What about the inhibition at 300 µg/mL ([2]; L929, 0,3 mg/ml) of the same compound?
A: The inhibition at 300 µg/mL was 32%.

Q: What about the inhibition at 600 µg/mL ([2]; L929, 0,6 mg/ml) of the same compound?
A: Its inhibition at 600 µg/mL is 62%.

Q: What about the inhibition at 70 µg/mL ([2]; L929, 0,07 mg/ml) of the same compound?
A: Its inhibition at 70 µg/mL is 0%.

Q: What about the inhibition at 150 µg/mL ([2]; L929, 0,15 mg/ml) of the same compound?
A: The inhibition at 150 µg/mL was 20%.

Q: And the inhibition at 1200 µg/mL ([2]; L929, 1,2 mg/ml)?
A: Its inhibition at 1200 µg/mL is 78%.

Q: And the inhibition at 200 µg/mL (Cellules de rate; LPS* (mitogène ajouté après 48 heures avec le dérivé NP))?
A: Its inhibition at 200 µg/mL is -60%.

Q: And the inhibition at 200 µg/mL (Cellules de rate; M (milieu seul))?
A: The inhibition at 200 µg/mL was -64%.

Q: And the inhibition at 200 µg/mL (Cellules de rate; conA* (mitogène ajouté après 48 heures avec le dérivé NP))?
A: The inhibition at 200 µg/mL was -50%.

Q: What about the “pourcentage d'augmentation (+) ou d'inhibition (-) de la prolifération” value (Cellules de rate; [6]) of the same compound?
A: The value was 0%.

Q: And the “pourcentage d'augmentation (+) ou d'inhibition (-) de la prolifération” value (Cellules de rate; 12 (µg/ml), M (milieu seul))?
A: Its value is -10%.

Q: And the “pourcentage d'augmentation (+) ou d'inhibition (-) de la prolifération” value (Cellules de rate; [4])?
A: The value was -30%.

Q: What about the “pourcentage d'augmentation (+) ou d'inhibition (-) de la prolifération” value (Cellules de rate; [7]) of the same compound?
A: The value was -20%.

Q: And the “pourcentage d'augmentation (+) ou d'inhibition (-) de la prolifération” value (Cellules de rate; 50 (µg/ml), M (milieu seul))?
A: The value was -30%.

Q: And the “pourcentage d'augmentation (+) ou d'inhibition (-) de la prolifération” value (Cellules de rate; [5])?
A: The value was 0%.

Q: What about the inhibition at 10 µg/mL [3] of the same compound?
A: The inhibition at 10 µg/mL was 25%.

Q: What about the inhibition at 30 µg/mL [3] of the same compound?
A: The inhibition at 30 µg/mL was 80%.

Q: And the inhibition at 60 µg/mL [3]?
A: Its inhibition at 60 µg/mL is 15%.

Q: And the inhibition at 120 µg/mL [3]?
A: Its inhibition at 120 µg/mL is 30%.

Q: And the inhibition at 240 µg/mL [3]?
A: Its inhibition at 240 µg/mL is 25%.

Q: And the inhibition at 480 µg/mL [3]?
A: The inhibition at 480 µg/mL was 55%.
